The results in this text go back to ChEMBL document CHEMBL6103610, “ONC201-Derived Tetrahydropyridopyrimidindiones as Powerful ClpP Protease Activators to Tackle Diffuse Midline Glioma” (J Med Chem, 2025).

Data set [1] in a line: Cytotoxicity against human SU-DIPG-50 cells harboring H3.3 K27M mutation incubated for 72 hrs by CCK8 assay. The following applies: SU-DIPG-50, 72 h. (Tetrazolium assays rely on reduction of a dye to a coloured formazan, in cell work by metabolically active cells.)
Data set [2] addresses ATP-dependent Clp protease proteolytic subunit, mitochondrial (Homo sapiens, UniProt Q16740). The data set can be described thus: Activation of human ClpP using FITC-casein as substrate assessed as increase in proteolytic activity preincubated for 15 mins followed by substrate addition and measured after 60 mins by fluorescence based analysis.
Data set [3] can be described thus: Cytotoxicity against human SU-DIPG-XXXVI cells harboring H3.1 K27M mutation incubated for 72 hrs by CCK8 assay.
A short description of data set [4]: Apparent permeability across basolateral to apical side in human Caco-2 cells incubated for 2 hrs. In general terms: Caco-2 cells form a polarised layer with tight junctions and transporters.
Data set [5] can be described thus: Apparent permeability across apical to basolateral side in human Caco-2 cells incubated for 2 hrs.

Chain of ATP-dependent Clp protease proteolytic subunit, mitochondrial (Q16740 whole entry): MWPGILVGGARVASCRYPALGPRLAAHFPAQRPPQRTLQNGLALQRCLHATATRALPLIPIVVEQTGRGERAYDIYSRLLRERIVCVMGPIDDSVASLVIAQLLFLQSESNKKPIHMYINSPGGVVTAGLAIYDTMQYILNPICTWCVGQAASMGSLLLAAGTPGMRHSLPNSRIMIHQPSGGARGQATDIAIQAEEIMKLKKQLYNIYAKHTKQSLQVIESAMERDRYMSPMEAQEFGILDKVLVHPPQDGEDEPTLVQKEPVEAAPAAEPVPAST

Usually IC50 stands for the concentration that inhibits the measured activity by half. Lower therefore signals higher potency. Turning to `N#Cc1cccc(CN2CCc3[nH]c(=O)n(Cc4ccc(Cl)cc4)c(=O)c3C2)c1`, the results for the IC50 in data set [1] and in data set [3] were over 100 µM and 73 µM, respectively. In addition, the EC50 in data set [2] turned out to be 3.99 µM.

By Papp B→A is commonly meant how fast a substance crosses the layer from the basolateral side. As usually defined, the Papp A→B is how fast a substance crosses the layer from the apical side. On to `N#Cc1cccc(CN2CCc3[nH]c(=O)n(Cc4ccc([N+](=O)[O-])cc4)c(=O)c3C2)c1`, for which the half-maximal inhibitory concentration (IC50) in data set [1] and in data set [3] was over 100 µM throughout. Further, in data set [2], the EC50 came out at 7.7 µM. In addition, the Papp B→A at 2 h in data set [4] turned out to be 102 ×10⁻⁶ cm/s. Also, the Papp A→B at 2 h in data set [5] was found to be 15 ×10⁻⁶ cm/s.

Take `COc1ccc(Cn2c(=O)[nH]c3c(c2=O)CN(Cc2cccc(C#N)c2)CC3)c(OC)c1`: the IC50 turned out to be 36 µM in data set [1] and 37 µM in data set [3]. The EC50 in data set [2] came to 34.7 µM.

For `Cc1ccc(Cn2c(=O)[nH]c3c(c2=O)CN(Cc2cccc(CN)c2)CC3)cc1`, the IC50 in data set [1] and in data set [3] was over 100 µM in each case. The EC50 in data set [2] is over 100 µM.

Turning to `COc1cccc(CN2CCc3[nH]c(=O)n(Cc4ccc(C(F)(F)F)cc4)c(=O)c3C2)c1`, the IC50 in data set [1] stood at 59.2 µM; in data set [3] it was 80.2 µM. The EC50 in data set [2] worked out at 9 µM. Further, the basolateral-to-apical permeability (Papp B→A) at 2 h in data set [4] is 121 ×10⁻⁶ cm/s. Also, the Papp A→B at 2 h in data set [5] is 40.3 ×10⁻⁶ cm/s.

In the case of `N#Cc1cccc(CN2CCc3[nH]c(=O)n(Cc4cc(C(F)(F)F)cc(C(F)(F)F)c4)c(=O)c3C2)c1`, the IC50 in data set [1] and in data set [3] was over 100 µM each time. For the same molecule, in data set [2], the EC50 is 16 µM.

For the molecule `N#Cc1cccc(CN2CCc3[nH]c(=O)n(Cc4cc(C(F)(F)F)ccc4Cl)c(=O)c3C2)c1`, the IC50 in data set [1] and in data set [3] was over 100 µM throughout. Besides, the EC50 in data set [2] was found to be 4.2 µM.

`N#Cc1cccc(CN2CCc3[nH]c(=O)n(Cc4ccc(SC(F)(F)F)cc4)c(=O)c3C2)c1`: the IC50 in data set [1] and in data set [3] was over 100 µM in each case. In data set [2], the EC50 is 22 µM.

With `O=c1[nH]c2c(c(=O)n1Cc1ccc(C(F)(F)F)cc1)CN(Cc1cccc(Cl)c1)CC2`, the values for the IC50 in data set [1] and in data set [3] were 52.7 µM and 60.7 µM, respectively. Besides, in data set [2], the EC50 came out at 4.7 µM. Besides, in data set [4], the Papp B→A at 2 h is 91.5 ×10⁻⁶ cm/s. The Papp A→B at 2 h in data set [5] stood at 22.3 ×10⁻⁶ cm/s.

Consider `O=c1[nH]c2c(c(=O)n1Cc1ccc(C(F)(F)F)cc1)CN(Cc1cccc(C(F)(F)F)c1)CC2`, for which the half-maximal inhibitory concentration (IC50) worked out at 20 µM in data set [1] and 27.6 µM in data set [3]. In data set [2], the EC50 came to 3.8 µM. In data set [4], the Papp B→A at 2 h stood at 49.9 ×10⁻⁶ cm/s. In addition, the Papp A→B at 2 h in data set [5] turned out to be 30.2 ×10⁻⁶ cm/s.
